According to PubChem BioAssay (NCI):
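Where inhibition never reached the appropriate level, the endpoint shown equals the highest concentration tested. Otherwise, values were interpolated linearly from a five-concentration, 48-hour dose response in 96-well plates. Abbreviation: GI50, concentration required for 50% inhibition of growth. TGI marks complete inhibition of growth.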

How the values were obtained:
Assay in all cases: growth of human tumour cells (NCI), 48 h
A498 renal = test system: A498 renal
A549 NSCLC = test system: A549 NSCLC
HCC-2998 colon = test system: HCC-2998 colon
HOP-62 NSCLC = test system: HOP-62 NSCLC
NCI-H522 lung = test system: NCI-H522 lung
OVCAR-4 ovarian = test system: OVCAR-4 ovarian
OVCAR-5 ovarian = test system: OVCAR-5 ovarian
SR leukemia = test system: SR leukemia
NCI/ADR-RES ovarian = test system: NCI/ADR-RES ovarian
PC-3 prostate = test system: PC-3 prostate

O=C(/C=C/c1c(O)ccc2ccccc12)c1ccccc1
TGI (A498 renal): > 100 µM | TGI (A549 NSCLC): > 100 µM | TGI (HCC-2998 colon): > 100 µM | TGI (HOP-62 NSCLC): > 100 µM | TGI (NCI-H522 lung): > 100 µM | TGI (OVCAR-4 ovarian): > 100 µM | TGI (OVCAR-5 ovarian): > 100 µM | TGI (SR leukemia): > 100 µM

O=C1NC2OCC(O)C(O)C2O1 (configuration not stated)
TGI (A498 renal): > 100 µM | TGI (A549 NSCLC): > 100 µM | TGI (HCC-2998 colon): > 100 µM | TGI (HOP-62 NSCLC): > 100 µM | TGI (NCI-H522 lung): > 100 µM | TGI (OVCAR-4 ovarian): > 100 µM | TGI (OVCAR-5 ovarian): > 100 µM | TGI (SR leukemia): > 100 µM

CCc1ccc(Nc2ccc([N+](=O)[O-])cc2[N+](=O)[O-])cc1
TGI (A498 renal): 66.9 µM | TGI (A549 NSCLC): > 100 µM | TGI (HCC-2998 colon): > 100 µM | TGI (HOP-62 NSCLC): > 100 µM | TGI (OVCAR-4 ovarian): > 100 µM | TGI (OVCAR-5 ovarian): > 100 µM

CC(C)c1cc2c(O)c(c1)Cc1cc(C(C)C)cc(c1O)Cc1cc(C(C)C)cc(c1O)Cc1cc(C(C)C)cc(c1O)C2
TGI (A498 renal): > 100 µM | TGI (A549 NSCLC): > 100 µM | TGI (HOP-62 NSCLC): > 100 µM | TGI (NCI-H522 lung): > 100 µM | TGI (OVCAR-4 ovarian): > 100 µM | TGI (OVCAR-5 ovarian): > 100 µM | TGI (SR leukemia): > 100 µM

CNc1nc(N)c(N=O)c(Nc2ccc(Br)cc2)n1
TGI (A549 NSCLC): > 100 µM | TGI (HCC-2998 colon): > 100 µM | TGI (HOP-62 NSCLC): > 100 µM | TGI (NCI-H522 lung): > 100 µM | TGI (NCI/ADR-RES ovarian): > 100 µM | TGI (OVCAR-5 ovarian): > 100 µM | TGI (PC-3 prostate): > 100 µM | TGI (SR leukemia): > 100 µM

COc1cc2c(c(OC)c1OC)C(=O)[C@@H]1c3ccc([N+](=O)[O-])cc3C(=O)N(CCCBr)[C@H]21
GI50 (A549 NSCLC): 12.3 µM | TGI (A549 NSCLC): 45.5 µM | GI50 (HCC-2998 colon): 1.17 µM | TGI (HCC-2998 colon): 7.51 µM | GI50 (HOP-62 NSCLC): 13.9 µM | TGI (HOP-62 NSCLC): 41.4 µM | GI50 (NCI-H522 lung): 4.18 µM | TGI (NCI-H522 lung): 25.2 µM | GI50 (NCI/ADR-RES ovarian): 11 µM | TGI (NCI/ADR-RES ovarian): 44.9 µM | GI50 (OVCAR-4 ovarian): 17.1 µM | TGI (OVCAR-4 ovarian): 64.2 µM | GI50 (OVCAR-5 ovarian): 31 µM | TGI (OVCAR-5 ovarian): 91.9 µM | GI50 (PC-3 prostate): 13.1 µM | TGI (PC-3 prostate): 55.6 µM | GI50 (SR leukemia): 3.92 µM | TGI (SR leukemia): > 100 µM

COC(=O)C(=O)C(C(=O)C=C(C)C)C(=O)C(=O)Nc1ccc(C)cc1C (configuration not stated)
TGI (A498 renal): > 100 µM | TGI (A549 NSCLC): > 100 µM | TGI (HCC-2998 colon): > 100 µM | TGI (HOP-62 NSCLC): > 100 µM | TGI (NCI-H522 lung): > 100 µM | TGI (OVCAR-4 ovarian): > 100 µM | TGI (OVCAR-5 ovarian): > 100 µM | TGI (SR leukemia): > 100 µM

COc1ccc(CNc2nc3cc(C(F)(F)F)ccc3nc2C)cc1OC
TGI (A498 renal): 83.6 µM | TGI (A549 NSCLC): > 100 µM | TGI (HCC-2998 colon): 58.9 µM | TGI (HOP-62 NSCLC): 69.9 µM | TGI (NCI-H522 lung): 92.7 µM | TGI (OVCAR-4 ovarian): 43.1 µM | TGI (OVCAR-5 ovarian): > 100 µM

CO[C@H]1C=C[C@@]23c4cc5c(cc4CO[C@]2(O)CN(C)[C@H]3C1)OCO5
TGI (A498 renal): > 100 µM | TGI (A549 NSCLC): > 100 µM | TGI (HCC-2998 colon): > 100 µM | TGI (NCI-H522 lung): > 100 µM | TGI (NCI/ADR-RES ovarian): > 100 µM | TGI (OVCAR-4 ovarian): > 100 µM | TGI (OVCAR-5 ovarian): > 100 µM | TGI (PC-3 prostate): > 100 µM

C=C[C@H]1C[C@@H]2C[C@@H]3[C@H]4C/C=C\C(=O)NCCCC5NC(=O)C(=C(O)/C=C/[C@@H]4CC(=O)[C@H]3[C@@H]2[C@H]1C)C5=O (some centres not stated)
GI50 (A498 renal): 0.175 µM | TGI (A498 renal): 0.369 µM | GI50 (A549 NSCLC): 0.62 µM | TGI (A549 NSCLC): 1.91 µM | GI50 (HCC-2998 colon): 1.41 µM | TGI (HCC-2998 colon): 2.78 µM | GI50 (HOP-62 NSCLC): 0.165 µM | TGI (HOP-62 NSCLC): 0.31 µM | GI50 (NCI/ADR-RES ovarian): 0.192 µM | TGI (NCI/ADR-RES ovarian): 0.365 µM | GI50 (OVCAR-4 ovarian): 0.21 µM | TGI (OVCAR-4 ovarian): 0.413 µM | GI50 (OVCAR-5 ovarian): 0.436 µM | TGI (OVCAR-5 ovarian): 1.72 µM | GI50 (PC-3 prostate): 1.36 µM | TGI (PC-3 prostate): 2.76 µM

COc1ccc2nc3cc(Cl)ccc3c(NCCN)c2c1
GI50 (A498 renal): 11.7 µM | TGI (A498 renal): 23.9 µM | GI50 (HOP-62 NSCLC): 1.58 µM | TGI (HOP-62 NSCLC): 3.03 µM | GI50 (NCI-H522 lung): 1.73 µM | TGI (NCI-H522 lung): 3.56 µM | GI50 (OVCAR-4 ovarian): 1.61 µM | TGI (OVCAR-4 ovarian): 3.02 µM | GI50 (PC-3 prostate): 1.72 µM | TGI (PC-3 prostate): 3.38 µM | GI50 (SR leukemia): 1.44 µM | TGI (SR leukemia): 5.4 µM

CCOc1ccc2c(c1)[n+]([O-])c(-c1nc3ccccc3s1)c(N)[n+]2[O-]
TGI (A498 renal): > 100 µM | TGI (A549 NSCLC): > 100 µM | TGI (HCC-2998 colon): > 100 µM | TGI (HOP-62 NSCLC): > 100 µM | TGI (NCI-H522 lung): 63.3 µM | TGI (OVCAR-4 ovarian): > 100 µM | TGI (OVCAR-5 ovarian): > 100 µM

O=C1OC(c2ccco2)=N/C1=C\c1cccc([N+](=O)[O-])c1
TGI (A498 renal): > 100 µM | TGI (A549 NSCLC): > 100 µM | TGI (HCC-2998 colon): > 100 µM | TGI (HOP-62 NSCLC): > 100 µM | TGI (NCI-H522 lung): > 100 µM | TGI (OVCAR-4 ovarian): > 100 µM | TGI (OVCAR-5 ovarian): > 100 µM | TGI (PC-3 prostate): > 100 µM | TGI (SR leukemia): > 100 µM

CSc1nc2cc(S(=O)(=O)N3CCCCC3)ccc2s1
TGI (A498 renal): > 100 µM | TGI (A549 NSCLC): > 100 µM | TGI (HOP-62 NSCLC): > 100 µM | TGI (NCI-H522 lung): > 100 µM | TGI (NCI/ADR-RES ovarian): > 100 µM | TGI (OVCAR-4 ovarian): > 100 µM | TGI (OVCAR-5 ovarian): > 100 µM | TGI (PC-3 prostate): > 100 µM | TGI (SR leukemia): > 100 µM

COc1cc2c3c(n(CCCCOC(=O)C(Cl)(Cl)Cl)c(=O)c2cc1OC)-c1cc2c(cc1C3=O)OCO2
GI50 (A498 renal): > 100 µM | TGI (A498 renal): > 100 µM | GI50 (A549 NSCLC): > 100 µM | TGI (A549 NSCLC): > 100 µM | GI50 (HOP-62 NSCLC): 29.3 µM | TGI (HOP-62 NSCLC): > 100 µM | GI50 (NCI-H522 lung): 0.692 µM | TGI (NCI-H522 lung): 76.3 µM | GI50 (NCI/ADR-RES ovarian): 82.7 µM | TGI (NCI/ADR-RES ovarian): > 100 µM | GI50 (OVCAR-4 ovarian): > 100 µM | TGI (OVCAR-4 ovarian): > 100 µM | GI50 (OVCAR-5 ovarian): > 100 µM | TGI (OVCAR-5 ovarian): > 100 µM | GI50 (PC-3 prostate): > 100 µM | TGI (PC-3 prostate): > 100 µM | GI50 (SR leukemia): 1.14 µM | TGI (SR leukemia): 15 µM

COC1=CC2(C=CC1=O)c1cc(OC)c(OC)cc1CCN2C(=O)c1ccccc1 (configuration not stated)
TGI (A498 renal): > 100 µM | TGI (A549 NSCLC): > 100 µM | TGI (HCC-2998 colon): > 100 µM | TGI (NCI-H522 lung): > 100 µM

CC(C)c1ccc(C(c2ccc(OCC(=O)O)cc2)c2ccc(C(C)C)cc(=O)c2O)c(O)c(=O)c1
TGI (A498 renal): 69.5 µM | TGI (A549 NSCLC): 21.3 µM | TGI (HCC-2998 colon): 20.3 µM | TGI (HOP-62 NSCLC): 26.2 µM | TGI (OVCAR-4 ovarian): 12.8 µM

Cc1nc(-c2ccccc2)c(-c2ccccc2)s1
TGI (A498 renal): 64.4 µM | TGI (A549 NSCLC): 89 µM | TGI (HCC-2998 colon): 25.3 µM | TGI (HOP-62 NSCLC): > 100 µM | TGI (NCI-H522 lung): 37.7 µM | TGI (NCI/ADR-RES ovarian): 65.4 µM | TGI (OVCAR-4 ovarian): > 100 µM | TGI (OVCAR-5 ovarian): > 100 µM | TGI (PC-3 prostate): 47.1 µM

N#CCC(=O)NC1C2CC3CC(C2)CC1C3 (configuration not stated)
TGI (A498 renal): 30.2 µM | TGI (A549 NSCLC): > 100 µM | TGI (HCC-2998 colon): 31.9 µM | TGI (HOP-62 NSCLC): 41.7 µM | TGI (NCI-H522 lung): 31 µM | TGI (OVCAR-4 ovarian): 50.5 µM | TGI (OVCAR-5 ovarian): 36.9 µM

COC(C(O)c1ccc2c(c1)OCO2)P(=O)(c1ccccc1)c1ccccc1 (configuration not stated)
TGI (A498 renal): > 100 µM | TGI (HOP-62 NSCLC): > 100 µM | TGI (NCI-H522 lung): > 100 µM | TGI (OVCAR-4 ovarian): 30.9 µM | TGI (OVCAR-5 ovarian): > 100 µM | TGI (SR leukemia): > 100 µM

N.N.O=C([O-])P(=O)([O-])[O-].[Na+].[Pt+4]
GI50 (A498 renal): > 100 µM | TGI (A498 renal): > 100 µM | GI50 (A549 NSCLC): > 100 µM | TGI (A549 NSCLC): > 100 µM | GI50 (HCC-2998 colon): > 100 µM | TGI (HCC-2998 colon): > 100 µM | GI50 (HOP-62 NSCLC): > 100 µM | TGI (HOP-62 NSCLC): > 100 µM | GI50 (NCI-H522 lung): > 100 µM | TGI (NCI-H522 lung): > 100 µM | GI50 (OVCAR-4 ovarian): > 100 µM | TGI (OVCAR-4 ovarian): > 100 µM
